Key:
human uPA = biological target: T1, human uPA (Homo sapiens, UniProt P00749); assay: in vitro uPA chromogenic substrate assay (glutaryl-glycyl-arginyl-p-nitroanilide, absorbance 405nm); assay type: biochemical; conditions: for inhibition at 20 µM: read-out: % INHIBITION OF uPA ACTIVITY 20 mM INHIBITOR; for inhibition at 100 µM: read-out: % INHIBITION OF uPA ACTIVITY 100 mM INHIBITOR
T1 construct: purchased
From the text: The values for the relative inhibitions contained in Table III are obtained by the following procedure.
An in vitro assay employs a commercially available synthetic chromogenic substrate, glutaryl-glycyl-arginyl-p-nitroanilide, and a commercially available human uPA. The uPA catalyzes the hydrolysis of the bond between the arginyl and p-nitroanilide moieties. The p-nitroaniline released upon hydrolysis of the substrate absorbs light at a wavelength of 405nm. The enzymatic activity is quantitated as a function of the increase in the absorbance of the solution at 405nm as measured with a spectrophotometer.
In order to obtain the data, stock solutions of the amiloride-related pyrazine derivative compounds were included in the assays, and the release of p-nitroaniline as followed by the change in absorbance at 405nm of the reaction mixture was compared to a control reaction mixture in which no amiloride-related pyrazine derivative compound was present.

circulating cancer cells = conditions: continuously administered orally to rats, result in words; cited from earlier work
Corneal Vessels = assay: rabbit corneal neovascularization model (PGE1 slow release pellet, amiloride agarose pellet implant); assay type: in vivo; conditions: result in words
From the text: A series of experiments have been conducted employing a rabbit model.

plasmin = plasmin (Homo sapiens, UniProt P00747); conditions: in vitro, result in words; cited from earlier work
plasma kallikrein = plasma kallikrein (Homo sapiens, UniProt P03952); conditions: in vitro, result in words; cited from earlier work
thrombin = thrombin (Homo sapiens, UniProt P00734); conditions: in vitro, result in words; cited from earlier work
[1] = biological target: tissue-type plasminogen activator (tPA) (Homo sapiens, UniProt P00750); conditions: in vitro, result in words; cited from earlier work
tissue-type plasminogen activator (tPA), sequence (P00750 36-562, species assumed): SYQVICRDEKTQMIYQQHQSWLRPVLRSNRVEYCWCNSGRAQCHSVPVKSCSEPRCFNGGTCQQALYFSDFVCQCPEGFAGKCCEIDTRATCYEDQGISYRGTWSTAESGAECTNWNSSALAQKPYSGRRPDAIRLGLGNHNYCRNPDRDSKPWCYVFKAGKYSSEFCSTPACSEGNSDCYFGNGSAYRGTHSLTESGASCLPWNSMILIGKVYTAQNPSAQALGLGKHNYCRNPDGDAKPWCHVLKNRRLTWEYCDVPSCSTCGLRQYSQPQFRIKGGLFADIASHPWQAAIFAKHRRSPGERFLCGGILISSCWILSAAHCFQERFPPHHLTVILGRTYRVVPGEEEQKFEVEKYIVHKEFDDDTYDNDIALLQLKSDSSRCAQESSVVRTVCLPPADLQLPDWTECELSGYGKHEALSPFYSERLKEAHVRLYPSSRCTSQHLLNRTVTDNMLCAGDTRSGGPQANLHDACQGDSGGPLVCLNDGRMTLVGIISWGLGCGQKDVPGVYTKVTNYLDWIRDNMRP

plasmin, sequence (P00747 97-580): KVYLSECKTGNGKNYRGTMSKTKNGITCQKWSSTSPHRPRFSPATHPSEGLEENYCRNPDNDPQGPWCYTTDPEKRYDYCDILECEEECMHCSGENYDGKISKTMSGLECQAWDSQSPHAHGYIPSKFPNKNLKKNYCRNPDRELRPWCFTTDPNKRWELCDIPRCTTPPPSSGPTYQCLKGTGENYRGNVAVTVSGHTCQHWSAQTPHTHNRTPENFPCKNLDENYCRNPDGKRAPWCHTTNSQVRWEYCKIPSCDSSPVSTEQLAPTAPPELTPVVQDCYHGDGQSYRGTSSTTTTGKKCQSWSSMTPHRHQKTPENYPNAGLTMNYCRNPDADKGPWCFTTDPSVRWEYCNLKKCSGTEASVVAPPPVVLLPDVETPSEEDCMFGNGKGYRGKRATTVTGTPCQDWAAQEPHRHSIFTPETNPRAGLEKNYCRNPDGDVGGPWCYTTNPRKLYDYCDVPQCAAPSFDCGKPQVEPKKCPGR
plasmin, sequence (P00747 581-810): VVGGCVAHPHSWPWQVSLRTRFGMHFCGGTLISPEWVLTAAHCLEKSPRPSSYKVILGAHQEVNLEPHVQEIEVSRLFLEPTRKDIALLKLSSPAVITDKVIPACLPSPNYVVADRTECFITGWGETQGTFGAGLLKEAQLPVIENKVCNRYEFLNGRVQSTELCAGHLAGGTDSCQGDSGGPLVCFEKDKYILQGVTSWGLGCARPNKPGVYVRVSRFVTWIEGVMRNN
plasma kallikrein, sequence (P03952 20-638, species assumed): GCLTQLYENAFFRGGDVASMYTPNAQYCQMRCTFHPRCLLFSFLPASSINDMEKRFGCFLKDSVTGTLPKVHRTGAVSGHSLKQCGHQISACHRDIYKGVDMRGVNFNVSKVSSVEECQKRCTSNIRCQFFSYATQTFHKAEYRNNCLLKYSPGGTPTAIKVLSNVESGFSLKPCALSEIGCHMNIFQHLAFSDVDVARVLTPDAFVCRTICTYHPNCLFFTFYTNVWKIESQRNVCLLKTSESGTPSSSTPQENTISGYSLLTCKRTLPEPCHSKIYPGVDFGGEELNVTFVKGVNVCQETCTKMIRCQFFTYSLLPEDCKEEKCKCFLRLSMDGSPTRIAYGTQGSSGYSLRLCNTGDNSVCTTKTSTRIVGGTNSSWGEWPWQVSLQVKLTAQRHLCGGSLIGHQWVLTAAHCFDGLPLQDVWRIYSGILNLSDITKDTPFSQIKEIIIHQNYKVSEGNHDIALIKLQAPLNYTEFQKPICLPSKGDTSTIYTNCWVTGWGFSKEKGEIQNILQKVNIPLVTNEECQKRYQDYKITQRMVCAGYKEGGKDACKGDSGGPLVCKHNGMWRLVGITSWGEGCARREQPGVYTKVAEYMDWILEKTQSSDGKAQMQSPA

| inhibition at 20 µM (human uPA) [%] | inhibition at 100 µM (human uPA) [%] | Structure (SMILES) | further results |
| --- | --- | --- | --- |
| 5 | 20.7 | NC(N)=NC(=O)c1nc(Cl)c(Cl)nc1N [Compound 5-ClA, 3--amino-5,6-dichloro-N-(diaminomethylene)pyrazinecarboxamide] | – |
| 1 | 7.7 | NC(N)=NC(=O)c1nc(Br)cnc1N [Compound 6-Br-5-HA, 3-amino-6-bromo-N--(diaminomethylene)pyrazinecarboxamide] | – |
| 65.6 | 69.9 | NC(N)=NC(=O)c1nc(Br)c(N)nc1N [Compound 6-BrA, 3,5-diamino-6-bromo-N-(diaminomethylene)pyrazinecarboxamide] | – |
| 7.1 | 27.9 | NC(N)=NC(=O)c1nc(F)c(N)nc1N [Compound 6-FA, 3,5-diamino-6-fluoro-N-(diaminomethylene)pyrazinecarboxamide] | – |
| 15.3 | 38.2 | NC(N)=NC(=O)c1ncc(N)nc1N [Compound 6-HA, 3,5-diamino-N-(diaminomethylene)pyrazinecarboxamide] | – |
| 41.1 | 48.3 | CN(C)c1nc(N)c(C(=O)N=C(N)N)nc1Cl [DMA, 3-amino-5-dimethylamino-6-chloro-N--(diaminomethylene)pyrazinecarboxamide] | – |
| 40.3 | 73.1 | CN(C)c1nc(N)c(C(=O)N=C(N)N)nc1I [IDMA, 3-amino-5-(N,N-dimethylamino)-6-iodo-N--(diaminomethylene)pyrazinecarboxamide] | – |

Further lines, the compound ahead of its results:

| Structure (SMILES) | inhibition at 20 µM (human uPA) [%] | inhibition at 100 µM (human uPA) [%] | further results |
| --- | --- | --- | --- |
| NC(N)=NC(=O)c1nccnc1N [5,6-HA, 3-amino-N-(diaminomethylene)pyrazinecarboxamide] | 2.1 | 11.1 | – |
| N=C(N)NC(=O)c1nc(Cl)c(N)nc1N [Amiloride, 3,5-diamino-6-chloro-N--(diaminomethylene)pyrazinecarboxamide] | – | – | inhibition of metastasis into the lung (circulating cancer cells): inhibited the metastasis of circulating cancer cells into the lung of the rat; inhibition of neovascularization (Corneal Vessels; amiloride-HCl·2H₂O agarose pellets in rabbit cornea): inhibited neovascularization in a dose dependent manner; reversal of neovascularization already produced (Corneal Vessels): reverse a portion of the neovascularization that had already been produced; inhibition of plasmin (plasmin): does not inhibit; inhibition of plasma kallikrein (plasma kallikrein): does not inhibit; inhibition of thrombin (thrombin): does not inhibit; inhibition of tissue-type plasminogen activator (tPA) [1]: does not inhibit |
| NC(=NCc1ccccc1)NC(=O)c1nc(Cl)c(N)nc1N [BENZAMIL, 3,5-diamino-6--chloro-N-(benzylaminoaminomethylene)pyrazinecarboxamide] | 1.2 | 7.7 | – |
| Cc1ccc(CNC(=N)NC(=O)c2nc(Cl)c(NCc3ccc(Cl)cc3)nc2N)c(C)c1 [CBDMB, 3-amino-5-(N-4-chlorobenzylamino)-6-chloro-N-[(2,4-dimethylbenzyl)aminoaminomethylene]pyrazinecarboxamide] | 41.7 | 63.4 | – |
| NC(N)=NC(=O)c1nc(I)c(N)nc1N [Compound 6-IA, 3,5-diamino-6-iodo-N-(diaminomethylene)pyrazinecarboxamide] | – | – | % INHIBITION OF uPA ACTIVITY 20 mM INHIBITOR (human uPA; 20 mM INHIBITOR): 64.4%; % INHIBITION OF uPA ACTIVITY 100 mM INHIBITOR (human uPA; 100 mM INHIBITOR): 83.9% |
| CCN(c1nc(N)c(C(=O)N=C(N)N)nc1Cl)C(C)C [EIPA, 3-amino-5-(N-ethyl-N--isopropylamino)-6-chloro-N-(diaminomethylene)pyrazinecarboxamide] | 28.3 | 56 | – |
| NC(N)=NC(=O)c1nc(Cl)c(N2CCCCCC2)nc1N [HMA, 3-amino-5-(1-homopiperidinyl)-6--chloro-N-(diaminomethylene)pyrazinecarboxamide] | 51.1 | 77 | – |
| CN(CC(=O)N=C(N)N)c1nc(N)c(C(=O)N=C(N)N)nc1Cl [MGCMA, 3-amino-6-chloro-5-[N-methyl-N-(guanidinocarbonylmethylamino)]-N(diaminomethylene)pyrazine carboxamide] | 29.1 | 43 | – |
| CC(C)CN(C)c1nc(N)c(C(=O)N=C(N)N)nc1Cl [MIBA, 3-amino--5-(N-methyl-N-isobutylamino)-6-chloro-N-(diaminomethylene)pyrazinecarboxamide] | 18.7 | 57.3 | – |
| NC(N)=NNC(=O)c1nc(Cl)c(N)nc1N [MK-875, 3,5-diamino-6-chloro-N²--(diaminomethylene)pyrazinecarbonyl hydrazide] | 1.9 | 7.3 | – |
| NC(=Nc1ccccc1)NC(=O)c1nc(Cl)c(N)nc1N [PHENAMIL, 3,5-diamino-6-chloro-N--(phenylaminoaminomethylene)pyrazinecarboxamide] | 1.7 | 5.5 | – |

From patent publication EP0451130A2, “Use of amiloride and other pyrazine derivatives for preventing or treating ocular neovascularization” (priority 1990, dated 1991)
